Data taken from patent US20230398130A1, “METHODS AND COMPOSITIONS FOR DIFFERENTIATING STEM CELLS” (Massachusetts Institute of Technology, priority 2020, published 2023).

Tests used:
ISC-enriched organoids [1] = assay: Primary screen, 384-well 2.5-D organoid differentiation (ENR+CD, 6 days): carbachol-induced lysozyme secretion (LYZ.S); type: cell-based, murine; settings: vs plate median
Source text: (§1) High-throughput screening.

ISC-enriched organoids [2] = assay: Primary screen, 384-well 2.5-D organoid differentiation (ENR+CD, 6 days, Target Selective Inhibitor Library, vs whole-plate median): ATP (CellTiter-Glo 3D, CTG); settings: for Dose.FC.CTG (log 2 fold change, ATP): vs plate median
ISC-enriched organoids [3] = assay: Primary screen, 384-well 2.5-D organoid differentiation (ENR+CD, 6 days): basal lysozyme secretion (LYZ.NS); type: cell-based, murine; settings: for Dose.FC.LYZ.NS (log 2 fold change, basal lysozyme secretion): vs plate median
Source text: as §1

| SMILES | Dose.FC.LYZ.S (log 2 fold change, carbachol-induced lysozyme secretion) (ISC-enriched organoids [1]; dose 0.08 uM) | Dose.FC.LYZ.S (log 2 fold change, carbachol-induced lysozyme secretion) (ISC-enriched organoids [1]; dose 0.40 uM) | Dose.FC.LYZ.S (log 2 fold change, carbachol-induced lysozyme secretion) (ISC-enriched organoids [1]; dose 2.00 uM) | Dose.FC.LYZ.S (log 2 fold change, carbachol-induced lysozyme secretion) (ISC-enriched organoids [1]; dose 10.00 uM) | Z.CTG (standard z score) (ISC-enriched organoids [2]; dose 0.08 uM) | Dose.FC.CTG (log 2 fold change, ATP) (ISC-enriched organoids [2]; dose 0.08 uM) | Z.CTG (standard z score) (ISC-enriched organoids [2]; dose 0.40 uM) | Dose.FC.CTG (log 2 fold change, ATP) (ISC-enriched organoids [2]; dose 0.40 uM) | Z.CTG (standard z score) (ISC-enriched organoids [2]; dose 2.00 uM) | Dose.FC.CTG (log 2 fold change, ATP) (ISC-enriched organoids [2]; dose 2.00 uM) | Z.CTG (standard z score) (ISC-enriched organoids [2]; dose 10.00 uM) | Dose.FC.CTG (log 2 fold change, ATP) (ISC-enriched organoids [2]; dose 10.00 uM) | Z.LYZ.NS (standard z score) (ISC-enriched organoids [3]; dose 0.08 uM) | Dose.FC.LYZ.NS (log 2 fold change, basal lysozyme secretion) (ISC-enriched organoids [3]; dose 0.08 uM) | Z.LYZ.NS (standard z score) (ISC-enriched organoids [3]; dose 0.40 uM) | Dose.FC.LYZ.NS (log 2 fold change, basal lysozyme secretion) (ISC-enriched organoids [3]; dose 0.40 uM) | Z.LYZ.NS (standard z score) (ISC-enriched organoids [3]; dose 2.00 uM) | Dose.FC.LYZ.NS (log 2 fold change, basal lysozyme secretion) (ISC-enriched organoids [3]; dose 2.00 uM) | Z.LYZ.NS (standard z score) (ISC-enriched organoids [3]; dose 10.00 uM) | Dose.FC.LYZ.NS (log 2 fold change, basal lysozyme secretion) (ISC-enriched organoids [3]; dose 10.00 uM) |
| --- | --- | --- | --- | --- | --- | --- | --- | --- | --- | --- | --- | --- | --- | --- | --- | --- | --- | --- | --- | --- |
| CS(=O)(=O)c1ccc(-c2cnc(N)c(C(=O)Nc3ccccc3)n2)cc1 [VE-821] | 0.130 | 0.089 | −0.004 | −0.429 | 0.508 | 0.213 | 0.311 | 0.130 | −0.328 | −0.137 | −2.006 | −0.840 | 0.924 | 0.106 | 0.544 | 0.063 | 0.901 | 0.103 | −2.475 | −0.284 |
| Cc1cc(Nc2cc(N3CCN(C)CC3)nc(Sc3ccc(NC(=O)C4CC4)cc3)n2)n[nH]1 [VX-680 (Tozasertib, MK-0457)] | −0.078 | −0.245 | −0.308 | −0.342 | −0.359 | −0.150 | −1.425 | −0.596 | −1.686 | −0.706 | −2.291 | −0.959 | −0.371 | −0.043 | −1.317 | −0.151 | −1.450 | −0.166 | −2.069 | −0.238 |
| Cc1ccc(NC(=O)C2(c3ccc4c(c3)OC(F)(F)O4)CC2)nc1-c1cccc(C(=O)O)c1 [VX-809 (Lumacaftor)] | 0.218 | −0.027 | −0.073 | −0.117 | 0.423 | 0.177 | −0.149 | −0.062 | −0.346 | −0.145 | 0.076 | 0.032 | 0.634 | 0.073 | −0.353 | −0.041 | −0.279 | −0.032 | −0.713 | −0.082 |
| COc1cc2/c(=N/c3ccc(Br)cc3F)nc[nH]c2cc1OCC1CCN(C)CC1 [Vandetanib (ZD6474)] | −0.139 | −0.054 | −0.384 | −0.494 | −1.547 | −0.648 | −0.874 | −0.366 | −2.089 | −0.874 | −2.880 | −1.206 | −0.594 | −0.068 | −0.792 | −0.091 | −2.356 | −0.271 | −2.594 | −0.298 |
| C[C@]1(c2nc3c(C(N)=O)cccc3[nH]2)CCCN1 [Veliparib (ABT-888)] | 0.105 | 0.179 | −0.016 | −0.136 | 0.307 | 0.128 | 0.132 | 0.055 | −0.057 | −0.024 | −0.521 | −0.218 | 0.649 | 0.075 | 1.211 | 0.139 | 0.203 | 0.023 | −0.537 | −0.062 |
| CCCS(=O)(=O)Nc1ccc(F)c(C(=O)c2c[nH]c3ncc(-c4ccc(Cl)cc4)cc23)c1F [Vemurafenib (PLX4032, RG7204)] | 0.120 | 0.150 | 0.055 | 0.022 | 0.297 | 0.124 | −0.195 | −0.082 | −0.014 | −0.006 | 0.073 | 0.030 | 0.786 | 0.090 | 0.462 | 0.053 | 0.411 | 0.047 | 0.263 | 0.030 |
| N#C[C@@H]1CCCN1C(=O)CNC12CC3CC(CC(O)(C3)C1)C2 [Vildagliptin (LAF-237)] | 0.099 | 0.113 | 0.038 | 0.013 | 0.553 | 0.232 | 0.547 | 0.229 | 0.358 | 0.150 | 0.811 | 0.339 | 1.285 | 0.148 | 2.004 | 0.230 | 1.478 | 0.170 | 0.846 | 0.097 |
